In one data set the target is T1, liver ALDH2 (Rattus norvegicus, UniProt P11884).
T1 construct: from tissue; host or cells: liver (left lateral lobe) lysate of Sprague Dawley (CD-IGS) rats
T1 sequence (P11884 20-519): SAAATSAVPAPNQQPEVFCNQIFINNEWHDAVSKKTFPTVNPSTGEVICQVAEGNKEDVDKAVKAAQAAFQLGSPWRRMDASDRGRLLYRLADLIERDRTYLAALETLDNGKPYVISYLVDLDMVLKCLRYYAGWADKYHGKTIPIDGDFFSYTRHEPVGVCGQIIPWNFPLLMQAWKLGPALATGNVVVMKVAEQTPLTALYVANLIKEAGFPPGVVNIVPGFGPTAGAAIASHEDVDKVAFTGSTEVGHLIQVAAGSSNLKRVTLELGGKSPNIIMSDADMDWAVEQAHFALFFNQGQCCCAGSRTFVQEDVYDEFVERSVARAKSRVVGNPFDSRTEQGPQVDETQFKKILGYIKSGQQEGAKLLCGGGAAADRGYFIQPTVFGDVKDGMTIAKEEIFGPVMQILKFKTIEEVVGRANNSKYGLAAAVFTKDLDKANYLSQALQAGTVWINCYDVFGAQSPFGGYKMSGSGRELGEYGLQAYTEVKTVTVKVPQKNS
Description: In vivo ALDH2 enzymatic activity assay, ethanol challenge (Example 2). Further details: species or system rats (Sprague Dawley). As to conditions: 20 mg/kg (Day 1), 12 mg/kg (Days 2-5) tail vein injection QD 5 days; ethanol challenge. Here is the method:
Sixty (60) male and sixty (60) female Sprague Dawley (CD-IGS) were obtained from Charles River Laboratories. All animals were housed under controlled conditions of temperature (72±8° F.), relative humidity (30-70%) and a 12-hour light-dark cycle (light from 6:00 AM to 6:00 PM). All animals were allowed free access to standard rodent chow (PicoLab Rodent Diet 20) and water (reverse osmosis, 0.2 μM filtered). Animals had at least a 3-day acclimation period prior to study.
Example 1-2 was synthesized by PharmAgra Labs, Lot #489PAL97; and stored at 4° C. and protected from light upon receipt. Example 1-2 dosing solutions were prepared by dissolving in PBS (pH 7.0) and thoroughly mixing via vortexing and sonication.
Example 1-15 was synthesized by PharmAgra Labs, Lot #505PAL17; and stored at 4° C. and protected from light upon receipt. Example 1-15 dosing solution was prepared by dissolving in PBS (pH 7.0) and thoroughly mixing via vortexing and sonication. The dosing formulation at concentration of 20 mg/mL was a clear solution.
Body weights of the animals in Groups 1-4 were obtained on Day 1. Body weights of the animals in Groups 5-8 were obtained on Days 1-3 respectively. Body weights of the animals in Groups 9-13 were obtained on Days 1, 4 and 5 respectively.
Animals were respectively administered vehicle and Example 1-2 at dosages of 2, 6.5 or 12 mg/kg via tail vein injection, once daily for 1 day (Groups 1-4), once daily for 3 days (Groups 5-8), or once daily for 5 days (Groups 9-12). For Group 13, animals were administered 20 mg/kg (on Day 1) or 12 mg/kg (on Days 2-5) dose via tail vein injection, once daily for 5 days. In some studies, the animals were administered a compound described herein for 10 days. In some studies, the animals were administered a compound described herein for 12 days. In some studies, the study was carried out with administered the compounds described herein including Example 1-2 racemate, Example 1-2A, Example 1-21B, Example 1-11 racemate, Example 1-11A, and/or Example 1-11B at a dosage of about 0.5, 1, 2, 4, and 8 mg.
Dosing volume (1 or 0.6 mL/kg) was calculated based on the body weight of the individual animal obtained on Day 1 (all groups), Days 2-3 (Groups 5-8), and Days 4-5 (Groups 9-13).
Ethanol (200PRF or 100% pure, non-denatured and no additives) was obtained from Fisher Scientific. The ethanol dosing solution was prepared fresh for each use. One (1) mL of ethanol was added to four (4) mL of saline (0.9% NaCl) in a glass vial and mixed by vortexing to create a uniform solution prior to administration. Animals were administered 20% ethanol at 1 g/kg (IP) 8 hours following the last dose of test article. Thirty (30) minutes following ethanol challenge, animals were euthanized with CO2. About 7 mL of whole blood was rapidly collected via vena cava for generation of serum samples for assays (Acetaldehyde assay by GPL and ALDH2 activity and protein assay by Eurofins). Blood samples were placed into serum separator tubes and maintained at room temperature for at least 30 minutes to allow clot formation prior to processing.
The left lateral lobe of liver was harvested and rinsed in cold saline to render a sample that was snap frozen in liquid nitrogen. Samples were stored at −80° C. until shipment. […]
The obtained serum samples as described herein were measured in singlicate for Acetaldehyde concentration using the Acetaldehyde Colorimetric Assay Kit (BioAssay Systems, #EACT-100), in accordance with manufacturer's instructions. […]

The values that follow come from patent US11649208B2, “Compounds and methods for treating alcohol disorder” (SOPHROSYNE PHARMACEUTICALS LIMITED, priority 2021, dated 2023).

Broadly, the melting point is the temperature, or range, at which the solid turns liquid.

`CCN(CC)C(=O)[S+]([O-])CC[S+]([O-])C(=O)N(CC)CC` (centres unmarked) [Example 1-15, 1-1′-(ethane-1,2-diyldisulfinyl)bis(N,N-diethylmethanamide)] yielded a melting point of 71.2 to 74.5 °C. Moreover, at liver ALDH2, the “ALDH2 inhibition activity in comparison with the negative control group” value is recorded as “did not show any inhibition activity”.
